{"source": "paper PMC9610617", "about": "“Anti-HIV Ermiasolides from Croton megalocarpus” (Molecules, 2022)", "key": {"[1]": {"test_system": "HIV-1IIIB", "experiment": "Anti-HIV activity: inhibition of HIV-induced cytopathic effect in infected MT-4 cells (MTT)", "type": "cell-based, Human immunodeficiency virus type 1", "details": "for IC50: Human immunodeficiency virus 1, MT4, 120 h; for SI, selective index: ratio CC50 (MT-4) / IC50 (HIV-1IIIB)", "description": "Human immunodeficiency virus type 1 (HIV-1IIIB) strain was obtained from the NIH HIV Reagent Program, Division of AIDS, NIAID, NIH. Dr. Robert Gallo donated human immunodeficiency virus-1 IIIB (ARP-398). HIV-1IIIB is highly capable of replicating in human T cell lines and appears to be well adapted for in vitro culture in T cells. The frozen HIV-1IIIB vials were thawed by immersion in room temperature water, and the vial was swirled until viruses were thawed. Then, 400 µL of the virus was transferred to 75 cm^2 tissue culture flasks (T75) containing 10 mL of 1 × 10^5 pelleted MT4 cells/mL, vortexed and incubated at 37 °C for 1 hr for virus adsorption. After 1 hr, 20 mL of RPMI-1640 was added gently and mixed with vortexing. The cells were then pelleted by centrifuging at 1500 rpm for 5 min. The pelleted cells were then washed and resuspended in 30 mL RPMI 1640 with L-glutamine and 20% fetal bovine serum in a T75 flask, incubated at 37 °C and monitored for the development of cytopathic effects (CPEs).\nThe virus infectivity test was performed to determine the infectious titer of the virus, which can cause cytopathic effects (CPE) in tissue culture over a reasonable period of 3 to 10 days while cells in culture remain viable. In addition, this procedure was performed to quantify the amount of virus required to produce a cytopathic effect in 50% of cell culture replicates (TCID50). CPE induced by the virus was observed under a microscope after 3–4 days. The TCID50 was then calculated as described by. For the anti-HIV activity testing, 640 µL of HIV-1IIIB virus at 1.26 × 10^8 TCID50/mL was used to infect 1 × 10^8 cell/mL. All procedures were carried out following biosafety guidelines defined in the BMBL, NIH-CDC HHS Publication No. (CDC) 21-1112 [44].\nMT-4 cells suspended at 1 × 10^8 cells/mL were infected with 640 µL of HIV-1IIIB virus at 1.26 × 10^8 TCID50/mL as described in above. After infection, 200 µL HIV-infected MT-4 cells (1 × 10^5 cells/well) in growth media were added to each well. The plates were preincubated for 24 h at 37 °C to allow stabilization. Then, 50 μL of the test compounds (at a concentration of 4 mg/mL) were added to the first column of the well. With a multichannel pipette, 50 μL was transferred (in triplicate) from the wells labeled 1 to wells labeled 2. Such transfers were continued (serial dilution), moving from left to right, changing tips prior to mixing contents of the next column of wells. Finally, 50 μL was discarded from the wells in column 12. Different concentrations ([…]) of test compounds were prepared through serial dilution. Each dilution was tested in triplicate. The microtiter plates were incubated at 37 °C in a 5% CO2 incubator for 5 days. […] After 5 days of incubation, cell viability was determined by the MTT assay as described by.\nA dose-response curve was plotted to calculate the concentrations that reduced viral replication by 50% (IC50). […] The efficacy of the test compounds, was determined by calculating the viral inhibition rate (EmaxAV) using Equation (1), as previously described by."}, "[2]": {"test_system": "human T-lymphocytic MT-4 cells", "experiment": "in vitro", "details": "MT-4 cells, 5 days, MTT, mean ± S.E.M, n = 3; for MNTC, maximum nontoxic concentration: concentration with cell viability above 80% (CC20)", "text": "(§1) In this study, human T-lymphocyte MT-4 cells (ARP-120) were obtained from the National Institute of Health (NIH) HIV Reagent Program, Division of AIDS, National Institute of Allergy and Infectious Diseases (NIAID), NIH; donated by Dr. Douglas Richman. Human T-lymphocytic MT-4 cells express CD4, CXCR4 and CCR5 and are used for cytotoxicity inhibition assays for antiviral drugs. The vials containing frozen MT-4 cells were retrieved from the liquid nitrogen tank and rapidly thawed. In a tissue culture laminar flow hood, the exterior of the vials was decontaminated by spraying 70% ethanol. […] The CCM was sterilized with a 0.22 µm membrane filter before use. The cultures were incubated at 37 °C in a humidified incubator with atmospheric conditions of 5% CO2. […] The cell count and viability were measured by the trypan blue dye exclusion technique.\n(§2) The cytotoxicity test was conducted to evaluate the cytotoxicity of the plant extracts by measuring cell death caused by the plant extracts. The assay was conducted using an MTT colorimetric assay as described by. The MTT assay is based on the reduction of the yellow-colored tetrazolium salt MTT 3-(4,5-dimethylthiazol-2-yl)-2,5-diphenyltetrazolium bromide) by NAD(P)H-dependent cellular oxidoreductase enzymes to an insoluble dark-blue colored formazan that can be measured spectrophotometrically. Formazan production indicates the number of viable cells; therefore, an increase or decrease in cellular viability results in a change in the amount of formazan formed, which indicates the degree of cellular cytotoxicity (CC50) caused by the plant extract.\n(§3) MTT (3-(4,5-dimethylthiazol-2-yl)-2,5-diphenyl tetrazolium bromide) was dissolved in PBS to obtain a final concentration of 5 mg/mL and filtered to sterilize and remove insoluble residue. The assay was carried out in 96-well, flat-bottomed microtiter plates. To each well, 200 µL of MT-4 cells (1 × 10^5 cells) in growth media was added. The plates were preincubated for 24 h at 37 °C to allow stabilization. Then, 50 μL of the test compounds (at a concentration of 4 mg/mL) were added to the first column of the well. With a multichannel pipette, 50 μL was transferred (in triplicate) from the wells labeled 1 to wells labeled 2, and such transfers were continued (serial dilution), moving from left to right, changing tips prior to mixing contents of the next column of wells. Finally, 50 μL was discarded from the wells in column 12. […] Each dilution was tested in triplicate. The negative control (NC) wells contained 50 µL of MT-4 cells in 0.5% DMSO [39].\n(§4) A 96-well microtiter plate containing the test compounds, positive and negative controls was incubated at 37 °C in a humidified atmosphere of 5% CO2 for 5 days. After incubation, 20 μL of MTT reagent (5 mg/mL MTT in phosphate-buffered saline) was added to each test well and control well. The plate was further incubated at 37 °C in a CO2 incubator for 4 h. After 4 h of incubation, 100 μL of DMSO was added to dissolve the dark-blue formazan crystals from surviving cells. After the formazan crystals were dissolved completely, the resulting optical density (OD) readings were measured relative to the controls on an ELISA plate reader at 570 nm at a reference wavelength of 620 nm. […] The concentration that determined cell viability above 80% (CC20) was chosen as the maximum non-toxic concentration (MNTC)."}, "[3]": {"experiment": "in vitro", "details": "human, MT-4 T-lymphocytic cells", "text": "as §1, §2, §3, §4"}, "[4]": {"details": "HIV-1IIIB-infected MT-4 cells, 5 days, MTT, mean ± S.E.M, n = 3"}, "[5]": {"details": "read-out: IC50, 50% antiviral effect concentration, HIV-1IIIB-infected MT-4 cells, 5 days, MTT, mean ± S.E.M, n = 3"}}, "note": "“And” between values parts separate entries of the source, which are not always exact repeats. Identical values can stand only once. Like-named read-outs stand apart in the source and are kept apart here.", "data": [{"smiles": "Nc1nc(NC2CC2)c2ncn([C@H]3C=C[C@@H](CO)C3)c2n1", "note": "[ABC, abacavir, reference compound]", "values": [{"measurement": "EmaxAV, maximum antiviral effect % (viral inhibition rate)", "setting": "[1]; [4]", "result": "58.67 ± 0.43", "unit": "%"}, {"measurement": "IC50", "setting": "[1]; HIV-1IIIB-infected MT-4 cells, 5 days, MTT, mean ± S.E.M, n = 3, read-out: IC50, 50% antiviral effect concentration", "result": "0.05 ± 0.031", "unit": "µg/mL"}, {"measurement": "SI, selective index", "setting": "[1]", "result": 5.0}, {"measurement": "MNTC, maximum nontoxic concentration", "setting": "[2]", "result": "0.18 ± 0.03", "unit": "µg/mL"}, {"measurement": "CC50, 50% cytotoxic concentration", "setting": "[2]", "result": "0.26 ± 0.00", "unit": "µg/mL"}, {"measurement": "EmaxC, maximum cytotoxic effect %", "setting": "[2]", "result": "17.83 ± 0.57", "unit": "%"}]}, {"smiles": "Cc1cn([C@H]2C[C@H](N=[N+]=[N-])[C@@H](CO)O2)c(=O)[nH]c1=O", "note": "[AZT, zidovudine, reference compound]", "values": [{"measurement": "EmaxAV, maximum antiviral effect % (viral inhibition rate)", "setting": "[1]; [4]", "result": "83.5 ± 0.57", "unit": "%"}, {"measurement": "IC50", "setting": "[1]; [5]", "result": 0.002, "unit": "µg/mL"}]}, {"smiles": "CO[C@@]12C[C@]3(C)CCC[C@H](C)[C@@]3(O)CC1=C(C)C(=O)O2", "note": "[Compound 1, 5β-Hydroxy-8α-methoxy eudesm-7(11)-en-12,8-olide]", "values": [{"measurement": "EmaxAV, maximum antiviral effect % (viral inhibition rate)", "setting": "[1]; [4]", "result": "93% and 93.4 ± 0.60%"}, {"measurement": "IC50", "setting": "[1]; [5]", "result": 0.002, "unit": "µg/mL"}, {"measurement": "SI, selective index", "setting": "[1]", "result": "39,872.3"}, {"measurement": "CC50 at 5 days", "setting": "[3]", "result": "96.77 ± 0.44", "unit": "µg/mL"}, {"measurement": "MNTC, maximum nontoxic concentration", "setting": "[2]", "result": "41.84 ± 0.11", "unit": "µg/mL"}, {"measurement": "EmaxC, maximum cytotoxic effect %", "setting": "[2]", "result": "62.21 ± 0.67", "unit": "%"}]}, {"smiles": "CC1=C2C[C@]3(O)[C@@H](C)CCC[C@@]3(C)C[C@@]2(O)OC1=O", "note": "[Compound 2, 5β,8α-Dihydroxy eudesm-7(11)-en-12,8-olide]", "values": [{"measurement": "EmaxAV, maximum antiviral effect % (viral inhibition rate)", "setting": "[1]; [4]", "result": "69.5% and 69.51 ± 0.26%"}, {"measurement": "IC50", "setting": "[1]; [5]", "result": 0.002, "unit": "µg/mL"}, {"measurement": "SI, selective index", "setting": "[1]", "result": "25,339.5"}, {"measurement": "CC50 at 5 days", "setting": "[3]", "result": "38.4 ± 0.63", "unit": "µg/mL"}, {"measurement": "MNTC, maximum nontoxic concentration", "setting": "[2]", "result": "4.973 ± 0.25", "unit": "µg/mL"}, {"measurement": "EmaxC, maximum cytotoxic effect %", "setting": "[2]", "result": "81.59 ± 0.41", "unit": "%"}]}, {"smiles": "CC1=C2C[C@]3(O)[C@@H](C)CCC[C@@]3(C)C[C@@H]2OC1=O", "note": "[Compound 3, 5β-Hydroxy-8H-β-eudesm-7(11)-en-12,8-olide]", "values": [{"measurement": "EmaxAV, maximum antiviral effect % (viral inhibition rate)", "setting": "[1]; [4]", "result": "77.5% and 77.46 ± 0.93%"}, {"measurement": "IC50, 50% antiviral effect concentration", "setting": "[1]; [4]", "result": "0.044 ± 0.01", "unit": "µg/mL"}, {"measurement": "IC50", "setting": "[1]; [5]", "result": 0.04, "unit": "µg/mL"}, {"measurement": "SI, selective index", "setting": "[1]", "result": 3384.4}, {"measurement": "CC50 at 5 days", "setting": "[3]", "result": "148.1 ± 0.05", "unit": "µg/mL"}, {"measurement": "MNTC, maximum nontoxic concentration", "setting": "[2]", "result": "64.93 ± 0.26", "unit": "µg/mL"}, {"measurement": "EmaxC, maximum cytotoxic effect %", "setting": "[2]", "result": "65.00 ± 0.01", "unit": "%"}]}, {"smiles": "Cc1ccnc2c1NC(=O)c1cccnc1N2C1CC1", "note": "[NVP, Nevirapine, reference compound]", "values": [{"measurement": "EmaxAV, maximum antiviral effect % (viral inhibition rate)", "setting": "[1]; [4]", "result": "72.53 ± 0.47", "unit": "%"}, {"measurement": "IC50", "setting": "[1]; [5]", "result": "0.24 ± 0.09", "unit": "µg/mL"}, {"measurement": "SI, selective index", "setting": "[1]", "result": 3.5}, {"measurement": "MNTC, maximum nontoxic concentration", "setting": "[2]", "result": "0.57 ± 0.0", "unit": "µg/mL"}, {"measurement": "CC50, 50% cytotoxic concentration", "setting": "[2]", "result": "0.82 ± 0.0", "unit": "µg/mL"}, {"measurement": "EmaxC, maximum cytotoxic effect %", "setting": "[2]", "result": "39.13 ± 0.65", "unit": "%"}]}, {"smiles": "C[C@H](Cn1cnc2c(N)ncnc21)OCP(=O)(O)O", "note": "[TDF, tenofovir]", "values": [{"measurement": "EmaxAV, maximum antiviral effect % (viral inhibition rate)", "setting": "[1]; [4]", "result": "80.55 ± 0.46", "unit": "%"}, {"measurement": "IC50", "setting": "[1]; [5]", "result": "0.04 ± 0.01", "unit": "µg/mL"}, {"measurement": "MNTC, maximum nontoxic concentration", "setting": "[2]", "result": "4.92 ± 0.71", "unit": "µg/mL"}, {"measurement": "CC50, 50% cytotoxic concentration", "setting": "[2]", "result": "6.73 ± 0.24", "unit": "µg/mL"}, {"measurement": "EmaxC, maximum cytotoxic effect %", "setting": "[2]", "result": "13.17 ± 0.43", "unit": "%"}]}]}
